# Test results published in ChEMBL document CHEMBL1145342, “Structure-based drug design and structural biology study of novel nonpeptide inhibitors of severe acute respiratory syndrome coronavirus main protease” (J Med Chem, 2006).
# Key:
# Replicase polyprotein 1a = Replicase polyprotein 1a (Severe acute respiratory syndrome-related coronavirus, UniProt P0C6U8); experiment: Inhibition of SARS coronavirus main protease
# [1] = target: Replicase polyprotein 1a (Severe acute respiratory syndrome-related coronavirus) (UniProt P0C6U8); experiment: Inhibition of SARS coronavirus main protease at 10 uM
Compound,IC50 (Replicase polyprotein 1a),inhibition [1]
Nc1ncc(S(=O)(=O)c2ccc(Cl)cc2)c(N)n1,6 µM,
O=[N+]([O-])c1ccc(S(=O)(=O)c2ccc([N+](=O)[O-])cc2)cc1,25 µM,
CSc1[nH]nc(NC(=O)c2cccs2)c1S(=O)(=O)c1ccccc1,15 µM,
COc1ccc([N+](=O)[O-])c(S(=O)(=O)c2ccccc2)n1,,58%
CC1(C)CC(=O)c2c(NCc3ccco3)sc(C#N)c2C1,16 µM,
O=C(O)c1ccc(S(=O)(=O)c2cc(Br)c(O)c(Br)c2)cc1,16 µM,
CC(=O)c1ccccc1S(=O)(=O)c1ccccc1C(=O)O,16 µM,
Cc1nn(C)c(NCc2ccc(-c3cccs3)s2)c1[N+](=O)[O-],20 µM,
CCOC(=O)C(=CNc1ccc(S(=O)(=O)c2ccc(/N=C/C(C(=O)OCC)=C(\O)OCC)cc2)cc1)C(=O)OCC,32 µM,
O=[N+]([O-])c1cc(C(F)(F)F)ccc1S(=O)(=O)c1ccc(Cl)cc1,12 µM,
Clc1ccc(-c2noc(CSC3=NCCN3)n2)cc1,,61%
CCOC(=O)/C(C#N)=C/Nc1ccc(S(=O)(=O)c2ccc(/N=C/C(C#N)=C(\O)OCC)cc2)cc1,16 µM,
Cc1noc(NC(=O)c2ccc(-c3cc(C(F)(F)F)nn3C)s2)c1[N+](=O)[O-],5 µM,
O=[N+]([O-])c1ccc(S(=O)(=O)c2ccc(Cl)cc2)[n+]([O-])c1,15 µM,
O=C(Cc1nccs1)c1nccs1,40 µM,
O=C(Oc1ccc(S(=O)(=O)c2ccc(OC(=O)C(Cl)=C(Cl)Cl)cc2)cc1)C(Cl)=C(Cl)Cl,0.9 µM,
Cc1oc(C(C)(C)C)cc1-c1cc(NS(=O)(=O)c2cccs2)[nH]n1,10 µM,
O=S(=O)(Cc1[nH]c(-c2ccc(Cl)s2)c[s+]1)c1cccs1,18 µM,
